Assay results reported in ChEMBL document CHEMBL4622981, “Exploration of TRPM8 Binding Sites by β-Carboline-Based Antagonists and Their In Vitro Characterization and In Vivo Analgesic Activities” (J Med Chem, 2020).
Calls of active or inactive are those of the source. The rule behind the calls is not given here.

What was measured:
[1] = Stability in human liver microsomes at 2.5 mM measured up to 60 mins in absence of phase 1 cofactor NADPH by HPLC analysis; format: ADME, Microsome; conditions: 1 h, 2500 µM
[2] = Stability in human liver microsomes at 2.5 mM measured up to 60 mins in absence of phase 2 cofactor UDP-GlcUA/NADPH by HPLC analysis; format: ADME, Microsome; conditions: 1 h, 2500 µM
[3] = Stability in human liver microsomes assessed as metabolic turnover at 2.5 mM preincubated for 5 mins followed by phase 1 cofactor NADPH addition measured for 60 mins by HPLC analysis; format: ADME, Microsome; conditions: read-out: Drug metabolism
Rattus norvegicus [4] = assay: Inhibition of icilin-induced wet-dog shake in Wistar rat model at 10 mg/kg, ip treated 30 mins prior to icilin challenge measured for 30 mins; format: functional, organism-based
Rattus norvegicus [5] = assay: Inhibition of icilin-induced wet-dog shake in Wistar rat model at 10 mg/kg, ip treated 2 hrs prior to icilin challenge measured for 30 mins; format: functional, organism-based

Stability [1]	Stability [2]	metabolised at 1 h [3] [%]	SMILES	inhibition (Rattus norvegicus [4])	inhibition (Rattus norvegicus [5])
Stable	Stable	1.1 to 72	COC(=O)[C@@H]1Cc2c([nH]c3ccccc23)[C@@H](c2ccccc2)N1Cc1ccccc1	–	–
Stable	Stable	1.1 to 72	O=C1N[C@H](Cc2ccccc2)C(=O)N2Cc3[nH]c4ccccc4c3C[C@@H]12	–	–
Stable	Stable	–	COC(=O)C(Cc1c[nH]c2ccccc12)N(Cc1ccccc1)Cc1ccccc1 (centres undefined)	Active	inactive
Stable	Stable	26.5	O=C1[C@@H]2Cc3c([nH]c4ccccc34)[C@@H](c3ccc(Cl)cc3)N2C(=O)N1Cc1ccc(F)cc1	–	–
–	–	1.1 to 72	COC(=O)CC[C@H]1N[C@H](C(=O)NCc2ccc(F)cc2)Cc2c1[nH]c1ccccc21	–	–
